In the assay the test system is CD8F1 mice, subcutaneous mammary adenocarcinoma, T/C%. Kind of assay: NCI In Vivo Anticancer Drug Screen. Data for tumor model Mammary Adenocarcinoma CD8F1 (subcutaneous) in CD8F1. To be noted: higher = larger tumour. In short, it runs like this:
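Mice carrying transplanted tumors received test compound, and survival or tumor size was recorded. Each value is the treated-group measurement divided by the corresponding measurement in vehicle-dosed controls.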

Setting [1] is: endpoint: median tumor weight (est.), dose: 12.5 mg/kg/injection, schedule: Q07DX005 (ip), vehicle: saline with Tween-80.
The mark [2] stands for this setting: endpoint: median tumor weight change, dose: 5.0 mg/kg/injection, schedule: Q01DX001 (ip), vehicle: saline.
[3] abbreviates: endpoint: median tumor weight change, dose: 10.0 mg/kg/injection, schedule: Q01DX001 (ip), vehicle: saline.
[4] abbreviates: endpoint: median tumor weight change, dose: 20.0 mg/kg/injection, schedule: Q01DX001 (ip), vehicle: saline.

Where “and” joins values, the source holds several entries; their conditions need not be identical. Equal values may be shown once. Inconclusive results are not listed.

`CCOC(=O)NC1=C(N2CC2)C(=O)C(NC(=O)OCC)=C(N2CC2)C1=O`: the T/C is, setting by setting: (endpoint: median tumor weight (est.), dose: 0.78 mg/kg/injection, schedule: Q07DX005 (ip), vehicle: saline) 36 % of control; (endpoint: median tumor weight (est.), dose: 1.56 mg/kg/injection, schedule: Q07DX005 (ip), vehicle: saline with Tween-80) 53 % of control; (endpoint: median tumor weight (est.), dose: 1.56 mg/kg/injection, schedule: Q07DX005 (ip), vehicle: saline) 36 % of control; (endpoint: median tumor weight (est.), dose: 3.12 mg/kg/injection, schedule: Q07DX005 (ip), vehicle: saline with Tween-80) 59 % of control; (endpoint: median tumor weight (est.), dose: 3.12 mg/kg/injection, schedule: Q07DX005 (ip), vehicle: saline) 56 % of control; (endpoint: median tumor weight (est.), dose: 6.25 mg/kg/injection, schedule: Q07DX005 (ip), vehicle: saline with Tween-80) 25 % of control. Moreover, the T/C was 25 % of control (endpoint: median tumor weight (est.), dose: 6.25 mg/kg/injection, schedule: Q07DX005 (ip), vehicle: saline); 11 % of control under setting [1]; 23 % of control (endpoint: median tumor weight (est.), dose: 12.5 mg/kg/injection, schedule: Q07DX005 (ip), vehicle: saline); 33 % of control (endpoint: median tumor weight change, dose: 2.5 mg/kg/injection, schedule: Q01DX001 (ip), vehicle: saline); 81 % of control (endpoint: median tumor weight change, dose: 2.5 mg/kg/injection, schedule: Q01DX001 (ip), vehicle: suspension in saline); 43 % of control under setting [2]. For the same compound, the T/C runs as follows: (endpoint: median tumor weight change, dose: 5.0 mg/kg/injection, schedule: Q01DX001 (ip), vehicle: suspension in saline) 80 % of control; (endpoint: median tumor weight change, dose: 10.0 mg/kg/injection, schedule: Q01DX001 (ip), vehicle: saline with Tween-80) 16 % of control and 31 % of control; under setting [3], 32 % of control; (endpoint: median tumor weight change, dose: 10.0 mg/kg/injection, schedule: Q01DX001 (ip), vehicle: suspension in saline) 52 % of control; (endpoint: median tumor weight change, dose: 20.0 mg/kg/injection, schedule: Q01DX001 (ip), vehicle: saline with Tween-80) -14 % of control; under setting [4], 11 % of control. Where the note is “endpoint: median tumor weight change, dose: 20.0 mg/kg/injection, schedule: Q01DX001 (ip), vehicle: suspension in saline”, the T/C was 19 % of control.

As to `CCOC(=O)c1cn(C)c2c1C(O)=C(C(=O)OC)CC(=O)N2`, the T/C (endpoint: median tumor weight change, dose: 125.0 mg/kg/injection, schedule: Q01DX001 (ip), vehicle: saline with Tween-80) is 79 % of control; the T/C (endpoint: median tumor weight change, dose: 250.0 mg/kg/injection, schedule: Q01DX001 (ip), vehicle: saline with Tween-80) was 97 % of control; the T/C (endpoint: median tumor weight change, dose: 500.0 mg/kg/injection, schedule: Q01DX001 (ip), vehicle: saline with Tween-80) is 83 % of control; the T/C (endpoint: median tumor weight change, dose: 1000.0 mg/kg/injection, schedule: Q01DX001 (ip), vehicle: saline with Tween-80) is 95 % of control.

Turning to `CC1(CO)C(O)CCC2(C)C1CCC1CC3CC12CCC3(O)CO` (stereo unspecified), the T/C reads like this: under setting [1], 39 % of control; (endpoint: median tumor weight (est.), dose: 18.75 mg/kg/injection, schedule: Q07DX005 (ip), vehicle: saline with Tween-80) 53 % of control; (endpoint: median tumor weight (est.), dose: 25.0 mg/kg/injection, schedule: Q07DX005 (ip), vehicle: saline with Tween-80) 55 % of control; (endpoint: median tumor weight (est.), dose: 37.5 mg/kg/injection, schedule: Q07DX005 (ip), vehicle: saline with Tween-80) 85 % of control; (endpoint: median tumor weight (est.), dose: 50.0 mg/kg/injection, schedule: Q07DX005 (ip), vehicle: saline with Tween-80) 60 % of control; (endpoint: median tumor weight (est.), dose: 100.0 mg/kg/injection, schedule: Q07DX005 (ip), vehicle: saline with Tween-80) 58 % of control. The T/C runs as follows: (endpoint: median tumor weight (est.), dose: 200.0 mg/kg/injection, schedule: Q07DX005 (ip), vehicle: saline with Tween-80) 92 % of control; (endpoint: median tumor weight (est.), dose: 400.0 mg/kg/injection, schedule: Q07DX005 (ip), vehicle: saline with Tween-80) 13 % of control.

As to `N[C@@H](Cc1ccc(N(CCCl)CCCl)cc1)C(=O)O`, the T/C (endpoint: mean tumor weight, dose: 1.25 mg/kg/injection, schedule: Q01DX009 (ip), vehicle: saline) is 10 % of control; the T/C (endpoint: mean tumor weight, dose: 2.5 mg/kg/injection, schedule: Q01DX009 (ip), vehicle: saline) was 3 % of control; the T/C (endpoint: mean tumor weight, dose: 4.0 mg/kg/injection, schedule: Q07DX006 (ip), vehicle: saline) is 12 % of control; the T/C (endpoint: mean tumor weight, dose: 5.0 mg/kg/injection, schedule: Q07DX006 (ip), vehicle: saline) was 3 % of control; the T/C (endpoint: mean tumor weight, dose: 8.0 mg/kg/injection, schedule: Q07DX006 (ip), vehicle: saline) is 1 % of control; the T/C (endpoint: median tumor weight (est.), dose: 1.0 mg/kg/injection, schedule: Q07DX005 (ip), vehicle: Klucel (hydroxypropylcellulose) (HPC)) was 91 % of control. In addition, the T/C by setting is: (endpoint: median tumor weight (est.), dose: 1.0 mg/kg/injection, schedule: Q07DX005 (ip), vehicle: suspension in saline) 60 % of control; (endpoint: median tumor weight (est.), dose: 2.0 mg/kg/injection, schedule: Q01DX001 (ip), vehicle: suspension in saline) 93 % of control and 114 % of control; (endpoint: median tumor weight (est.), dose: 2.0 mg/kg/injection, schedule: Q07DX005 (ip), vehicle: Klucel (hydroxypropylcellulose) (HPC)) 42 % of control; (endpoint: median tumor weight (est.), dose: 3.0 mg/kg/injection, schedule: Q07DX005 (ip), vehicle: suspension in saline) 6 % of control; (endpoint: median tumor weight (est.), dose: 4.0 mg/kg/injection, schedule: Q01DX001 (ip), vehicle: suspension in saline) 62 % of control and 70 % of control; (endpoint: median tumor weight (est.), dose: 4.0 mg/kg/injection, schedule: Q07DX005 (ip), vehicle: Klucel (hydroxypropylcellulose) (HPC)) 16 % of control. In addition, the T/C runs as follows: (endpoint: median tumor weight (est.), dose: 4.0 mg/kg/injection, schedule: Q07DX005 (ip), vehicle: suspension in saline) 12 % of control; (endpoint: median tumor weight (est.), dose: 5.0 mg/kg/injection, schedule: Q07DX005 (ip), vehicle: suspension in saline) 1 % of control; (endpoint: median tumor weight (est.), dose: 5.3 mg/kg/injection, schedule: Q01DX001 (ip), vehicle: suspension in saline) 15 % of control; (endpoint: median tumor weight (est.), dose: 8.0 mg/kg/injection, schedule: Q07DX005 (ip), vehicle: Klucel (hydroxypropylcellulose) (HPC)) 9 % of control; (endpoint: median tumor weight (est.), dose: 8.0 mg/kg/injection, schedule: Q07DX005 (ip), vehicle: suspension in saline) 1 % of control; (endpoint: median tumor weight (est.), dose: 12.0 mg/kg/injection, schedule: Q01DX001 (ip), vehicle: suspension in saline) 7 % of control. The T/C (endpoint: median tumor weight (est.), dose: 16.0 mg/kg/injection, schedule: Q01DX001 (ip), vehicle: suspension in saline) is 8 % of control and 18 % of control; the T/C (endpoint: median tumor weight (est.), dose: 18.0 mg/kg/injection, schedule: Q01DX001 (ip), vehicle: suspension in saline) is 7 % of control; the T/C (endpoint: median tumor weight change, dose: 3.0 mg/kg/injection, schedule: Q01DX001 (ip), vehicle: saline) was 72 % of control; the T/C under setting [2] is 4 % of control; the T/C under setting [3] is -6 % of control; the T/C under setting [4] is -82 % of control.

On to `Cc1c(N)nc(C(CC(N)=O)NCC(N)C(N)=O)nc1C(=O)NC(C(=O)NC(C)C(O)C(C)C(=O)NC(C(=O)NCCc1nc(-c2nc(C(=O)NCCCNC(C)c3ccccc3)cs2)cs1)C(C)O)C(OC1OC(CO)C(O)C(O)C1OC1OC(CO)C(O)C(OC(N)=O)C1O)c1cnc[nH]1` (stereo unspecified), for which the T/C is 122 % of control (endpoint: median tumor weight (est.), dose: 0.5 mg/kg/injection, schedule: Q07DX005 (ip), vehicle: water); 123 % of control (endpoint: median tumor weight (est.), dose: 1.0 mg/kg/injection, schedule: Q07DX005 (ip), vehicle: water); 89 % of control (endpoint: median tumor weight (est.), dose: 2.0 mg/kg/injection, schedule: Q07DX005 (ip), vehicle: water); 29 % of control (endpoint: median tumor weight (est.), dose: 4.0 mg/kg/injection, schedule: Q07DX005 (ip), vehicle: water); 78 % of control (endpoint: median tumor weight (est.), dose: 8.0 mg/kg/injection, schedule: Q07DX005 (ip), vehicle: water); 21 % of control (endpoint: median tumor weight (est.), dose: 16.0 mg/kg/injection, schedule: Q07DX005 (ip), vehicle: water).

(Values after PubChem BioAssay AID220 (DTP/NCI, 2004).)
